From patent publication US11098040B2, “Compounds and methods of use” (Ferro Therapeutics, Inc., priority 2018, dated 2021)
Like-named read-outs stand apart in the source and are kept apart here.

What was measured:
786-O = assay: Cell proliferation (Alamar Blue) assay, 786-O renal cell carcinoma, with/without ferrostatin; assay type: cell-based; conditions: Homo sapiens
Outline: (§1)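 Cells seeded at 5000/well, 16-24 h, then exposed 24 h at 37° C to compound, 10-0.0005 μM in 3-fold dilutions, 1% DMSO final. Alamar Blue fluorescence (ex 540/em 590 nm) read after 1.5 h; IC50 from variable-slope sigmoidal fit.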

SJSA-1 = assay: Cell proliferation (Alamar Blue) assay, SJSA-1 osteosarcoma, with/without ferrostatin; assay type: cell-based, human; conditions: Homo sapiens
Outline: as §1

A431 = assay: Cell proliferation (Alamar Blue) assay, A431; assay type: cell-based; conditions: Homo sapiens, A-431; Cell Line A431
Experimental: Cells (SJSA-1, 786-O and A431) were seeded (5000 cells/100 μL/well) in 96-well tissue culture plate and incubated at 37° C./5% CO2 for 16-24 hours. The cells were then treated with compounds (25 μL of 5×). The compound concentrations were 10-0.0005 μM prepared in 3-fold serial dilutions with final DMSO concentration of 1%. The plates were then incubated for 24 h at 37° C./5% CO2 in a moist environment. Then Alamar Blue™ reagent (final concentration 1×-12.5 μL) was added to each well and incubated for 1.5 hours at 37° C./5% CO2. The plates were read on fluorescence reader at 540 nm excitation and 590 nm emission wavelengths. The IC50 values were subsequently determined using a sigmoidal dose-response curve (variable slope) in GraphPad Prism® 5 software.
The cell proliferation assays for the compounds shown Table 25 was performed according to the protocols described herein, including Examples 4 and 6.

MiaPaCa-2 = assay: Cell viability assay (CellTiter Glo), pancreatic carcinoma MiaPaCa-2; assay type: cell-based; conditions: Homo sapiens, MIA PaCa-2; pancreatic carcinoma, 96 hours, CellTiter Glo; read-out: IC50 MiaPaCa-2
Experimental: (§2) Cell viability assay was performed to assess the potency of the compounds in human cancer cell lines KP4 (pancreatic ductal adenocarcinoma), MiaPaCa-2 (pancreatic carcinoma), AsPC-1 (pancreatic adenocarcinoma, ascites), 143B (osteosarcoma), and SJSA-1 (osteosarcoma). Selected compounds were also assayed in a human breast epithelial cell line MCF-10A, a nontumorigenic cell line as a control to assess differential activity. Cells at a density of 500-5,000 cells/well were seeded in 96-well plates and incubated at 37° C. overnight. A series of 9 different concentrations of compound stocks (500×) were created by 3-fold serial dilution in DMSO. These compounds were further diluted in culture media and then added to cells so that the final DMSO concentration was equal to 0.25% or less. After 96 hours of incubation, 50 μL of CellTiter Glo reagent (Promega) was added to each well and luminescence was measured after 10 minutes using EnVision (PerkinElmer). Compounds titrated from top concentration of up to 30 μM. The select compounds were tested initially from 30 μM as the top concentration in duplicates (range of 4.6 nM-30 μM). […] Luminescence from cells treated with DMSO alone was set as Max and % of inhibition was calculated as follows: Inhibition %=(Max-Sample value)/Max*100. Data was analyzed using XL-fit software (ID Business Solutions Ltd.). IC50, relative IC50, or % of top inhibition was calculated.
The results of the assay in the pancreatic cell lines are given in Table 15a for PANC1, Table 15b for MiaPaCa-2, and Table 15c for AsPC-1.

MCF-10A = assay: Cell viability assay (CellTiter Glo), non-tumorigenic breast epithelial cell line MCF-10A; assay type: cell-based; conditions: Homo sapiens, 96 hours
Experimental: as §2
Paclitaxel was used as the positive control for cytotoxicity.

A549 = assay: Cell viability assay, A549 cells; assay type: cell-based; conditions: Homo sapiens, A549, A549, read-out: IC50 for A549
Outline: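 Growth of A549 cells was assessed with a cell viability assay. Cells were plated at 1,000-10,000 cells/well in 96-well plates and incubated overnight at 37° C. Nine-point 3-fold DMSO dilutions, starting from 30 μM and run in duplicate, were diluted into media (final DMSO 0.25% or less). After 96 hours, CellTiter Glo luminescence was read, inhibition was calculated against DMSO controls, and IC50 was fitted in XL-fit.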

[1] = 786-0, Cell Line 786-O, read-out: IC50
[2] = SJSA-1, Cell Line SJSA-1, read-out: IC50
[3] = 786-0, 24 h, Alamar Blue, 24 h, 2 μM ferrostatin, read-out: 786-O (IC50, μM) 2 μM Ferrostatin
[4] = 786-0, 24 h, Alamar Blue, 24 h, without ferrostatin, read-out: 786-O (IC50, μM) Without Ferrostatin
[5] = SJSA-1, 24 h, Alamar Blue, 24 h, 2 μM ferrostatin, read-out: SJSA-1 (IC50, μM) 2 μM Ferrostatin
[6] = SJSA-1, 24 h, Alamar Blue, 24 h, without ferrostatin, read-out: SJSA-1 (IC50, μM) Without Ferrostatin

SMILES	IC50 (786-O; [1]) [µM]	IC50 (SJSA-1; [2]) [µM]	IC50 (A431) [nM]	further results
C[C@H]1Cc2c([nH]c3ccc(F)cc23)[C@H](c2ccc(S(=O)(=O)NC3CC3)cc2F)N1C(=O)CCl (stereo in doubt) [Compound 164, 4-((1S,3S)-2-(2-chloroacetyl)-6-fluoro-3-methyl-2,3,4,9-tetrahydro-1H-pyrido[3,4-b]indol-1-yl)-N-cyclopropyl-3-fluorobenzenesulfonamide]	0.023	0.013	9940	IC50 (786-O; [3]): 6.34 µM; IC50 (786-O; [4]): 0.023 µM; IC50 (SJSA-1; [5]): 7.06 µM; IC50 (SJSA-1; [6]): 0.013 µM
C#CC(=O)N1[C@@H](COC)Cc2c([nH]c3ccccc23)[C@@H]1c1ccc(S(=O)(=O)NC2CC2)cc1F [Compound 144]	0.007	0.025	3500	
CCCC[C@H]1Cc2c([nH]c3ccc(F)cc23)[C@H](c2ccc(S(=O)(=O)NC3CCC3)cc2)N1C(=O)CCl [Compound 145, 4-((1S,3S)-3-butyl-2-(2-chloroacetyl)-6-fluoro-2,3,4,9-tetrahydro-1H-pyrido[3,4-b]indol-1-yl)-N-cyclobutylbenzenesulfonamide]	0.003	0.004	4600	
C#CCOc1ccc([C@H]2c3[nH]c4ccccc4c3C[C@H](C(=O)OC)N2C(=O)CCl)cc1 [Compound 147, methyl (1S,3R)-2-(2-chloroacetyl)-1-(4-(prop-2-yn-1-yloxy)phenyl)-2,3,4,9-tetrahydro-1H-pyrido[3,4-b]indole-3-carboxylate]	0.049	0.159	> 10000	
C#CC(=O)N1[C@@H](c2ccc(S(=O)(=O)NC3CC3)cc2F)c2[nH]c3ccc(Cl)cc3c2C[C@@H]1C [Compound 151]	0.018	0.037	5220	
C[C@H]1Cc2c([nH]c3ccccc23)C(c2ccc(-n3ccnc3)cc2)N1C(=O)CCl (stereo partly drawn) [Compound 163, 1-((3S)-1-(4-(1H-imidazol-1-yl)phenyl)-3-methyl-1,3,4,9-tetrahydro-2H-pyrido[3,4-b]indol-2-yl)-2-chloroethan-1-one]	6.4	> 10	> 10000	
C#CC(=O)N1[C@@H](c2ccc(S(=O)(=O)NC3CC3)cc2F)c2[nH]c3ccc(OC)cc3c2C[C@@H]1C [Compound 165, N-cyclopropyl-3-fluoro-4-((1S,3S)-6-methoxy-3-methyl-2-propioloyl-2,3,4,9-tetrahydro-1H-pyrido[3,4-b]indol-1-yl)benzenesulfonamide]	0.047	0.119	3440	IC50 (786-O; [3]): 4.79 µM; IC50 (786-O; [4]): 0.047 µM; IC50 (SJSA-1; [5]): 3.77 µM; IC50 (SJSA-1; [6]): 0.119 µM
COCCN(C(=O)c1ccc([C@H]2c3[nH]c4ccccc4c3C[C@H](C(=O)N(C)C)N2C(=O)CCl)cc1)C(C)(C)C [Example 52]				IC50 (MiaPaCa-2): 243 nM; IC50 (MCF-10A): 180 nM; IC50 (A549): 280 to 360 nM
CN(C)C(=O)[C@H]1Cc2c([nH]c3ccccc23)[C@H](c2ccc(C(=O)N(CCC(=O)OC(C)(C)C)C(C)(C)C)cc2)N1C(=O)CCl [Example 54]				IC50 (MiaPaCa-2): 217 nM; IC50 (MCF-10A): 560 nM; IC50 (A549; unit printed as PM): 790 nM
CN(C)C(=O)[C@H]1Cc2c([nH]c3ccccc23)[C@H](c2ccc(NC(=O)OC(C)(C)C)cc2)N1C(=O)CCl [Example 56]				IC50 (MiaPaCa-2): 759 nM; IC50 (MCF-10A): 1510 nM
CN(C)C(=O)[C@H]1Cc2c([nH]c3ccccc23)[C@H](c2ccc(S(C)(=O)=O)cc2)N1C(=O)CCl [Example 59]				IC50 (MiaPaCa-2): 591 nM; IC50 (MCF-10A): 8780 nM
C[C@H]1Cc2c([nH]c3ccccc23)[C@H](c2cnn(C3CCOCC3)c2)N1C(=O)CCl [Example 158]		1.4	> 10000	
C[C@H]1Cc2c([nH]c3ccccc23)[C@H](c2ccncc2)N1C(=O)CCl [Example 171]		0.254	8110	
CCS(=O)(=O)N1CCN(c2ccc([C@H]3c4[nH]c5ccccc5c4C[C@H](C)N3C(=O)CCl)cc2)CC1 [Example 209]		0.019	3280	

Further lines, with some results ahead:

IC50 (786-O; [1]) [µM]	IC50 (SJSA-1; [2]) [µM]	IC50 (A431) [nM]	SMILES	further results
0.051	0.036	1900	C[C@H]1Cc2c([nH]c3ccccc23)[C@H](c2ccc(C(=O)Nc3ccccn3)cc2)N1C(=O)CCl (single isomer, unassigned) [Compound 219]	
0.188	0.184	> 10000	Cc1cc(N2CCOCC2)ccc1[C@@H]1c2[nH]c3ccccc3c2C[C@H](C)N1C(=O)CCl [Compound 128, 2-chloro-1-((1R,3S)-3-methyl-1-(2-methyl-4-morpholinophenyl)-1,3,4,9-tetrahydro-2H-pyrido[3,4-b]indol-2-yl)ethan-1-one]	
4.2	4.4	4400	C[C@H]1Cc2c([nH]c3ccccc23)[C@@H](c2ccc(N3CCOCC3)cc2F)N1C(=O)CCl [Compound 129]	
3.8	6.8	6000	C[C@H]1Cc2c([nH]c3ccccc23)[C@H](c2ccc(CN3CCOCC3)cc2)N1C(=O)CCl [Compound 132]	
0.009	0.009	2700	C#CC(=O)N1[C@@H](CCCC)Cc2c([nH]c3ccc(F)cc23)[C@@H]1c1ccc(S(=O)(=O)NC2CCC2)cc1 [Compound 143, 4-((1S,3S)-3-butyl-6-fluoro-2-propioloyl-2,3,4,9-tetrahydro-1H-pyrido[3,4-b]indol-1-yl)-N-cyclobutylbenzenesulfonamide]	
0.023	0.03	2400	C#CC(=O)N1[C@@H](c2ccc(F)cc2)c2[nH]c3ccccc3c2C[C@@H]1C(=O)OC [Compound 146, methyl (1S,3R)-1-(4-fluorophenyl)-2-propioloyl-2,3,4,9-tetrahydro-1H-pyrido[3,4-b]indole-3-carboxylate]	
> 10	> 10	2000	C[C@H]1Cc2c([nH]c3ccccc23)[C@@H](c2ccc(N3CCOCC3)nc2)N1C(=O)CCl [Compound 157]	
	4.7	5400	C[C@H]1Cc2c([nH]c3ccccc23)C(c2ccc(S(N)(=O)=O)cc2)N1C(=O)CCl (some centres unmarked) [Example 123]	
	> 10	2800	CC1CN(c2ccc([C@@H]3c4[nH]c5ccccc5c4C[C@H](C)N3C(=O)CCl)cc2)CCO1 (some centres unmarked) [Example 127]	
	> 10	7000	C[C@H]1Cc2c([nH]c3ccccc23)[C@@H](c2cnn(C3CCOCC3)c2)N1C(=O)CCl [Example 159]	
	0.091	2990	C#CC(=O)N1[C@@H](c2ccc(S(=O)(=O)NC3CC3)cc2F)c2[nH]c3ccccc3c2C[C@@H]1C [Example 174]	
	0.011	2730	C#CCOc1ccc2[nH]c3c(c2c1)C[C@H](C(=O)OC)N(C(=O)CCl)[C@H]3c1ccc(C(=O)NC23CC4CC(CC(C4)C2)C3)cc1 [Example 211]	
0.008		2510	CC1CN(c2ccc([C@H]3c4[nH]c5ccccc5c4C[C@H](C)N3C(=O)CCl)cc2)CC(C)O1 (some centres unmarked) [Example 212]	
	0.093	10000	C[C@H]1Cc2c([nH]c3ccccc23)[C@H](c2ccc(N3CCOCC3)nc2)N1C(=O)CCl [Example 220]	
